Experimental findings from US20220041641A1, “QUATERNARY AMMONIUM SALTS AS INHIBITORS OF TRIMETHYLAMINE PRODUCTION” (Senda Biosciences, Inc., priority 2018, published 2022) are described below.

The Papp A→B is the apparent permeability from the apical to the basolateral side of a cell layer. What is called Papp B→A is the apparent permeability from the basolateral to the apical side of a cell layer. The term Cmax denotes the peak of the concentration-time curve. As usually defined, the bioavailability is dose-corrected exposure relative to a reference, in per cent. For orientation: IC50 means the concentration at which inhibition is half-maximal.

A short description of data set [1]: Caco-2 permeability assay. The note with it: human, Caco-2, pH 7.4. The class given is in vitro ADME. The method, then:
Preparation of Caco-2 Cells: 50 μL and 25 mL of cell culture medium were added to each well of the Transwell insert and reservoir, respectively. The HTS transwell plates were incubated at 37° C., 5% CO2 for 1 hour before cell seeding. […] Cell culture medium was replaced every other day, beginning no later than 24 hours after initial plating.
Assessment of Cell Monolayer Integrity: Medium was removed from the reservoir and each Transwell insert and replaced with prewarmed fresh culture medium. Transepithelial electrical resistance (TEER) across the monolayer was measured using Millicell Epithelial Volt-Ohm measuring system (Millipore, USA). The Plate was returned to the incubator once the measurement was done. The TEER value was calculated according to the following equation: […]
Preparation of Solutions: 2 mM stock solutions in DMSO of control compounds were prepared and diluted with HBSS (10 mM HEPES, pH 7.4) to get 10 μM working solution. 0.2 mM stock solutions of test compounds in DMSO were prepared and diluted with HBSS (10 mM HEPES, pH 7.4 with 0.5% BSA) to get 1 μM working solution. Metoprolol, erythromycin and cimetidine were used as control compounds.
The Caco-2 plate was removed from the incubator. The monolayer was washed twice with pre-warmed HBSS (10 mM HEPES, pH 7.4). The plate was incubated at 37° C. for 30 minutes. To determine the rate of drug transport in the apical to basolateral direction, 125 μL of the working solution was added to the Transwell insert (apical compartment). A 50 μL sample was transferred immediately from the apical compartment to 200 μL of acetonitrile containing IS (100 nM alprazolam, 200 nM Caffeine and 100 nM tolbutamide) in a new 96-well plate as the initial donor sample (A-B) and it was vortexed at 1000 rpm for 10 minutes. The wells in the receiver plate (basolateral compartment) were filled with 235 μL of transport buffer. To determine the rate of drug transport in the basolateral to apical direction, 285 μL of the working solution were added to the receiver plate wells (basolateral compartment). A 50 μL sample was transferred immediately from the basolateral compartment to 200 μL of acetonitrile containing IS (100 nM alprazolam, 200 nM Caffeine and 100 nM tolbutamide) in a new 96-well plate as the initial donor sample (B-A) and it was vortexed at 1000 rpm for 10 minutes. The Transwell insert (apical compartment) was filled with 75 μL of transport buffer. The apical to basolateral direction and the basolateral to apical direction need to be done at the same time. The plates were incubated at 37° C. for 2 hours. At the end of the incubation, 50 μL samples from donor sides (apical compartment for Ap→Bl flux, and basolateral compartment for B1→Ap) and receiver sides (basolateral compartment for Ap→Bl flux, and apical compartment for B1→Ap) were transferred to wells of a new 96-well plate, followed by the addition of 4 volume of acetonitrile containing IS (100 nM alprazolam, 200 nM Caffeine and 100 nM tolbutamide). Samples were vortexed for 10 minutes, 50 μL samples were transferred to wells of a new 96-well plate, followed by the addition of 50 μL Hepes and 200 μL IS. All samples were vortexed for 10 minutes, and then centrifuged at 3,220 g for 40 minutes. An aliquot of 150 μL of the supernatant was mixed with an appropriate volume of ultra-pure water before LC-MS/MS analysis.
Apparent permeability (Papp) can be calculated for drug transport assays using the following equation: […]
Papp is apparent permeability (cm/s×10^−6);
Papp (B-A) indicates the apparent permeability coefficient in basolateral to apical direction, and
Papp (A-B) indicates the apparent permeability coefficient in apical to basolateral direction.

The nature of data set [2]: Pharmacokinetic study of colon contents and plasma after oral dose of conjugate. It counts as in vivo, male C57B3L/6 mice. The note with it: male, C57B3L/6, mouse, in vivo, po. The method, then: To confirm that the active agent component of the conjugate is released in the gastrointestinal tract, a pharmacokinetic study was conducted in male C57B3L/6 mice examining conjugate and active agent of concentrations in both the colon contents and plasma after oral dose of conjugate. Conjugate and active agent of were quantified by LCMS at 0 (pre-dose), 0.25, 0.5, 1, 2, 4, 6, 8, 12, and 24 hours post-dose of compound.

The nature of a further data set: in vivo. Further details: species or system Sprague-Dawley rats. Conditions: Sprague-Dawley, rat. The method, then: Sprague-Dawley rats (three rats per compound) were treated with a single intravenous (IV) 1 mg/kg dose or orally (PO) a single 10 mg/kg dose. Plasma concentrations of the conjugates were determined by LCMS at 5 minutes, 15 minutes, 30 minutes, 1 hour, 2 hours, 4 hours, 8 and 24 hours post compound administration. […] In addition, the plasma exposure and bioavailability of the active agent of was lower when dosed as a conjugate instead of the active agent alone.

In data set [3] the test system is enzymatic activity in fecal matter. The experiment in a line: Inhibition of enzymatic activity in fecal matter. The note with it: d9-choline 1 mM, 16 hours at 37° C., anaerobic, d9-TMA by LCMS. It counts as cell-based. Here is the method: Inhibition of enzymatic activity in fecal matter was determined by adding a substrate (d9-choline, 1 mM final concentration) and a compound in a range of concentrations in order to determine an IC50. After incubation for a designated 16 hours at 37° C. in anaerobic conditions, samples were be prepared for LCMS analysis, and the amount of d9-TMA produced was determined using LCMS analysis as in the Examples above.

Data set [4] concerns the target CutC from Proteus mirabilis (Proteus mirabilis, UniProt B4EYG1). As to the kind of experiment: Cell-based assay for TMA production from a native producer (P. mirabilis). Conditions: d9-TMA from 1 mM d9-choline, 5 h, 37° C.; value 10 given when no fit or % TMA remaining at 10 μM higher than 15%; read-out: Average IC50 Whole cell P. mirabilis. In a few lines:
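Overnight anaerobic cultures of P. mirabilis or C. sporogenes, grown in BHI with 1 mM choline, were diluted and given 1 mM (trimethyl-d9)-choline plus compound at 10 μM final. After 5 h at 37° C., d9-TMA was quantified by LCMS.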

CutC from Proteus mirabilis, sequence (B4EYG1 entry or part of it): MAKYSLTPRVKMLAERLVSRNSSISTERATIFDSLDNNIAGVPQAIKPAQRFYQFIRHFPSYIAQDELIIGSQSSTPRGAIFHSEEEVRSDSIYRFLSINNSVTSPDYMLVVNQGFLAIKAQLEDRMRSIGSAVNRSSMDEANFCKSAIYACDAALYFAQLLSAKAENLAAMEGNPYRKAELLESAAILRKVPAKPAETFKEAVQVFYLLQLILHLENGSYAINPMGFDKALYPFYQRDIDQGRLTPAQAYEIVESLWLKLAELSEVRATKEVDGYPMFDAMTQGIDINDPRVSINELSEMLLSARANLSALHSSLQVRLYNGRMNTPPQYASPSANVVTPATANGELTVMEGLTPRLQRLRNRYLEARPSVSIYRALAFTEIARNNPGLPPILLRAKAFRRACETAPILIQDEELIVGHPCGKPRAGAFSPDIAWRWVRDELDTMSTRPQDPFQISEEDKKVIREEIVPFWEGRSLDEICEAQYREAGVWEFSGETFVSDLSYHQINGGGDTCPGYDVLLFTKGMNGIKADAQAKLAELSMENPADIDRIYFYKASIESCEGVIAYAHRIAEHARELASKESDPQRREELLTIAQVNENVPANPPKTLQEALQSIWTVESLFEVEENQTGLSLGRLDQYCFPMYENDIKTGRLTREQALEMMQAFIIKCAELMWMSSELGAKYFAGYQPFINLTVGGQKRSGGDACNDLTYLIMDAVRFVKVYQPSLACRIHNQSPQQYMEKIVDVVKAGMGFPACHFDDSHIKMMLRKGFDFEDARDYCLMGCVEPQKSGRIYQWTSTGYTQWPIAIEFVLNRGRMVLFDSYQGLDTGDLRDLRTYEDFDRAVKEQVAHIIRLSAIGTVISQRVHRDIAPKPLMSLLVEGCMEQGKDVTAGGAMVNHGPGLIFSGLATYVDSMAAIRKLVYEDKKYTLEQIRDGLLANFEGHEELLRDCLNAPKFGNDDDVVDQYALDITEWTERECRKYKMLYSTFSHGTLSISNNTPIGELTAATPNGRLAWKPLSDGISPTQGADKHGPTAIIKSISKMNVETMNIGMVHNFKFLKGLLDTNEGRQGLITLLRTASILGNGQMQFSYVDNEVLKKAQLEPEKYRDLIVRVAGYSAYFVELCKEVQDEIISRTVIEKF
CutC from Proteus mirabilis, sequence (B4EYG0 entry or part of it, further chain): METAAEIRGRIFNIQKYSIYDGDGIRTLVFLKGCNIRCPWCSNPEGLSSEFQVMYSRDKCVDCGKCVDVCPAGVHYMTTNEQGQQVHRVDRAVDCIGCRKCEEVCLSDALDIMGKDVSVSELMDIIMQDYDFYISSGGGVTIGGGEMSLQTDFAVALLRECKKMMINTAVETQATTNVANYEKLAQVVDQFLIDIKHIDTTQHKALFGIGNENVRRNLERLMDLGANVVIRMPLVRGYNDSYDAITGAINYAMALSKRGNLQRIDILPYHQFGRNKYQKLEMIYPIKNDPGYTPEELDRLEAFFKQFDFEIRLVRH

On to `CC(=O)OCC1OC(OCC[N+](C)(C)CF)C(OC(C)=O)C(OC(C)=O)C1OC(C)=O.[I-]` (stereo in doubt) [Compound 79, N-(fluoromethyl)-N,N-dimethyl-2-(((2S,3S,4R,5S,6S)-3,4,5-triacetoxy-6-(acetoxymethyl)tetrahydro-2H-pyran-2-yl)oxy)ethan-1-aminium Iodide], for which, in data set [1], the Papp A→B at 2 h, 1 µM turned out to be 0.214 ×10⁻⁶ cm/s and the Papp B→A at 2 h, 1 µM amounted to 0.255 ×10⁻⁶ cm/s. For the same compound, the highest level in data set [2] (Cmax) was 5 nM. In addition, in the data set “in vivo” (iv, 1 mg/kg), the peak level (Cmax) was 13600 nM. For the same compound, in “in vivo” (po, 10 mg/kg), the “% F” value is 1.60%, the Cmax came out at 260 nM and the bioavailability was determined as 2.16%.

On to `CC(=O)OC[C@@H]1O[C@H](OCC[N+](C)(C)CF)[C@@H](OC(C)=O)[C@H](OC(C)=O)[C@H]1OC(C)=O` (stereo in doubt) [Compound 79, N-(fluoromethyl)-N,N-dimethyl-2-(((2S,3S,4R,5S,6S)-3,4,5-triacetoxy-6-(acetoxymethyl)tetrahydro-2H-pyran-2-yl)oxy)ethan-1-aminium Iodide], for which the values for the IC50 in data set [3] and in data set [4] were 1170 nM and at least 10000 nM, respectively. The maximum concentration (Cmax) in “in vivo” (iv, 1 mg/kg) was found to be 1 nM; in the data set “in vivo” (po, 10 mg/kg) it was 50 nM.

As for `CC(=O)OC[C@@H]1O[C@H](OCC[N+](C)(C)CCl)[C@@H](OC(C)=O)[C@H](OC(C)=O)[C@H]1OC(C)=O` (stereo in doubt) [Compound 78, N-(chloromethyl)-N,N-dimethyl-2-(((2S,3S,4R,5S,6S)-3,4,5-triacetoxy-6-(acetoxymethyl)tetrahydro-2H-pyran-2-yl)oxy)ethan-1-aminium Iodide], the IC50 in data set [3] is 390 nM; in data set [4] it was at least 10000 nM. This compound came in with a Cmax in the data set “in vivo” (iv, 1 mg/kg) of 6 nM.
